In patent publication US20100234364A1, “CCR2 INHIBITORS AND METHODS OF USE THEREOF” (priority 2007, published 2010):

target: T1, CCR2 (Homo sapiens, UniProt P41597); experiment: chemotaxis (conventional migration), ligand binding or calcium mobilization (calcium flux) assays; format: cell-based; conditions: Table 2: activity in one of the chemotaxis
T1 construct: chemokine expressing cells (such as THP-1 cells for CCR2 assay or MOLT-4 cells for CCR9 assay); host or cells: THP-1 cells
Method: THP-1 cells and MOLT-4 cells were obtained from the American Type Culture Collection (Manassas, Va.) and cultured in RPMI tissue culture medium supplemented with 10% fetal calf serum (FCS) in a humidified 5% CO2 incubator at 37° C. Recombinant human chemokine proteins MCP-1 and TECK were obtained from R&D Systems (Minneapolis, Minn.). ^125I-labeled MCP-1 protein was obtained from Amersham (Piscataway, N.J.). ChemoTX® chemotaxis microchambers were purchased from Neuro Probe (Gaithersburg, Md.). CyQUANT® cell proliferation kits were purchased from Molecular Probes (Eugene, Oreg.). Calcium indicator dye Fluo-4 AM was purchased from Molecular Devices (Mountain View, Calif.).
Conventional-migration assay was used to determine the efficacy of potential receptor antagonists in blocking migration mediated through chemokines (such as CCR2 or CCR9). This assay was routinely performed using the ChemoTX® microchamber system with a 5-μm pore-sized polycarbonate membrane. To begin such an assay, chemokine expressing cells (such as THP-1 cells for CCR2 assay or MOLT-4 cells for CCR9 assay) were harvested by centrifugation of cell suspension at 1000 RPM on a GS-6R Beckman centrifuge. The cell pellet was resuspended in chemotaxis buffer (HBSS with 0.1% BSA) at 10×10^6cells/mL for CCR2 assay (5 ×10^6cells/mL for CCR9 assay). Test compounds at desired concentrations were prepared from 10 mM stock solutions by serial dilutions in chemotaxis buffer. An equal volume of cells and compounds were mixed and incubated at room temperature for 15 minutes. Afterwards, 20 μL of the mixture was transferred onto the porous membrane of a migration microchamber, with 29 μL of chemokine ligand (0.1 nM chemokine MCP-1 protein for CCR2 assay or 50 nm chemokine TECK protein for CCR9 assay) placed at the lower chamber. Following an incubation at 37° C. (90-minute for CCR2; 150-minute for CCR9), during which cells migrated […] the chemokine gradient, the assay was terminated by removing the cell drops from atop the filter. To quantify cells migrated across the membrane, 5 μL of 7X CyQUANT® solution was added to each well in the lower chamber, and the fluorescence signal measured on a Spectrafluor Plus fluorescence plate reader (TECAN, Durham, N.C.). The degree of inhibition was determined by comparing migration signals between compound-treated and untreated cells. IC50 calculation was further performed by non-linear squares regression analysis using Graphpad Prism (Graphpad Software, San Diego, Calif.).
Calcium flux assay measures an increase in intracellular calcium following ligand-induced receptor activation. In the screen of chemokine antagonists, it was used as a secondary assay carried out on a FLIPR® machine (Molecular Devices, Mountain View, Calif.). To begin an assay, chemokine expressing cells (such as THP-1 cells for CCR2 assay or MOLT-4 cells for CCR9 assay) were harvested by centrifugation of cell suspension, and resuspended to 1.5×10^6 cells/mL in HBSS (with 1% fetal calf serum). Cells were then labeled with a calcium indicator dye Fluo-4 AM for 45 minutes at 37° C. with gentle shaking. Following incubation, cells were pelletted, washed once with HBSS and resuspended in the same buffer at a density of 1.6×10^6 cells/mL. One hundred microliters of labeled cells were mixed with 10 μL of test compound at the appropriate concentrations on an assay plate. Chemokine protein (MCP-1 at a final concentration of 0.1 nM for CCR2 assay or TECK at a final concentration of 25 nM for CCR9 assay) to activate the receptor. The degree of inhibition was determined by comparing calcium signals between compound-treated and untreated cells. IC50 calculations were further performed by non-linear squares regression analysis using Graphpad Prism (Graphpad Software, San Diego, Calif.).
Ligand binding assay was used to determine the ability of potential CCR2 antagonists to block the interaction between CCR2 and its ligand MCP-1. […]

T1 sequence (P41597 whole entry): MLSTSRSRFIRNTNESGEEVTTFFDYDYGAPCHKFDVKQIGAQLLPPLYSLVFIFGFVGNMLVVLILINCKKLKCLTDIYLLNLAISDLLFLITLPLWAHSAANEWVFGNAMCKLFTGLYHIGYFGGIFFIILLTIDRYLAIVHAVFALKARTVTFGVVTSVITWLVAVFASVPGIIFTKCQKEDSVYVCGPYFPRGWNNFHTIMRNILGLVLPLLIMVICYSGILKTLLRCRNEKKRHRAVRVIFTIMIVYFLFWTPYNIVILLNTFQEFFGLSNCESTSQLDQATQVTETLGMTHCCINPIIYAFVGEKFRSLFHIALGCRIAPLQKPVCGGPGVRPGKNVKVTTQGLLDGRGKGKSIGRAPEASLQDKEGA

Row | IC50 [nM] | SMILES
1 | < 500 | O=C(c1ccccc1F)c1cc(Cl)ccc1NS(=O)(=O)c1ccc(Cl)c(Cl)c1 [drawing 306]
2 | < 500 | Cn1ccc(C(=O)c2cc(Cl)ccc2NS(=O)(=O)c2ccc(Cl)c(C(F)(F)F)c2)n1 [drawing 311]

same assay, conditions: Table 3: activity in one of the chemotaxis

Row | IC50 [nM] | SMILES
3 | 500 to 5000 | Cn1ccc(C(=O)c2cc(Cl)ccc2NS(=O)(=O)c2ccc(Cl)c(C(F)(F)F)c2)n1 [drawing 322]
4 | 500 to 5000 | O=S(=O)(Nc1ccc(Cl)cc1-c1nnn[nH]1)c1ccc(Cl)c(Cl)c1 [drawing 325]
5 | 500 to 5000 | Cn1ccnc1C(O)c1cc(Cl)ccc1NS(=O)(=O)c1ccc(Cl)c(Cl)c1 (centres unmarked) [drawing 327]
6 | 500 to 5000 | O=C(c1ccccc1)c1ccc(Br)cc1NS(=O)(=O)c1ccc(Cl)c(Cl)c1 [drawing 328]
7 | 500 to 5000 | O=C(c1ccccc1)c1cc(Cl)ccc1NS(=O)(=O)c1ccc(Cl)cc1 [drawing 330]
8 | 500 to 5000 | O=C(c1ccccc1F)c1cc(Cl)ccc1NS(=O)(=O)c1ccc(Cl)c(Cl)c1 [drawing 335]
9 | 500 to 5000 | O=C(c1ccc(F)cc1)c1cc(Cl)ccc1NS(=O)(=O)c1ccc(Cl)c(Cl)c1 [drawing 336]
10 | 500 to 5000 | O=C(c1ccccc1)c1cc(Cl)ccc1NS(=O)(=O)c1ccc(Cl)c(C(F)(F)F)c1 [drawing 337]
11 | 500 to 5000 | O=C(c1ccccc1)c1cc(F)ccc1NS(=O)(=O)c1ccc(Cl)c(Cl)c1 [drawing 338]
12 | 500 to 5000 | O=C(c1ccccc1)c1cc(Cl)ccc1NS(=O)(=O)c1ccc(Cl)c(Cl)c1 [drawing 342]
13 | 500 to 5000 | O=C(c1ccccc1)c1ccc(Cl)cc1NS(=O)(=O)c1ccc(Cl)c(C(F)(F)F)c1 [drawing 344]
14 | 500 to 5000 | O=C(c1ccc(Cl)cc1NS(=O)(=O)c1ccc(Cl)c(C(F)(F)F)c1)N1CCCCC1 [drawing 371]
